Assay in all cases: NCI-60 one-dose SRB screening
Holding throughout (format): cell-based

One experiment has as its system OVCAR-3. The following applies: Homo sapiens, OVCAR-3, Ovarian Cancer, 10 µM one dose, 48 h, read-out: growth percentage.
Another experiment has as its system LOX IMVI. The following applies: Homo sapiens, Melanoma, 10 µM one dose, 48 h, read-out: growth percentage.
The next experiment deals with COLO 205. The following applies: Homo sapiens, COLO 205, Colon Cancer, 10 µM one dose, 48 h, read-out: growth percentage.
The next experiment concerns MDA-MB-435. The conditions noted are these: Homo sapiens, MDA-MB-435, Melanoma, 10 µM one dose, 48 h, read-out: growth percentage.
A further experiment deals with CCRF-CEM. The following applies: Homo sapiens, Leukemia, 10 µM one dose, 48 h, read-out: growth percentage.
For a further experiment, the system named is SR. The following applies: Homo sapiens, Leukemia, 10 µM one dose, 48 h, read-out: growth percentage.
The next experiment deals with NCI-H23. The conditions noted are these: Homo sapiens, NCI-H23, Non-Small Cell Lung Cancer, 10 µM one dose, 48 h, read-out: growth percentage.
A further experiment concerns IGROV1. The conditions noted are these: Homo sapiens, IGROV-1, IGROV1, Ovarian Cancer, 10 µM one dose, 48 h, read-out: growth percentage.
Another experiment deals with OVCAR-4. The conditions noted are these: Homo sapiens, OVCAR-4, Ovarian Cancer, 10 µM one dose, 48 h, read-out: growth percentage.
A further experiment relates to ACHN. The following applies: Homo sapiens, Renal Cancer, 10 µM one dose, 48 h, read-out: growth percentage.
For another experiment, the system named is KM12. The following applies: Homo sapiens, KM12, Colon Cancer, 10 µM one dose, 48 h, read-out: growth percentage.
For the next experiment, the system named is HCT-15. The following applies: Homo sapiens, HCT-15, Colon Cancer, 10 µM one dose, 48 h, read-out: growth percentage.
In the next experiment the test system is MDA-MB-231/ATCC. The conditions noted are these: Homo sapiens, Breast Cancer, 10 µM one dose, 48 h, read-out: growth percentage.
Another experiment deals with PC-3. The conditions noted are these: Homo sapiens, PC-3, Prostate Cancer, 10 µM one dose, 48 h, read-out: growth percentage.
A further experiment has as its system T-47D. The conditions noted are these: Homo sapiens, T47D, Breast Cancer, 10 µM one dose, 48 h, read-out: growth percentage.
Another experiment deals with UACC-62. The conditions noted are these: Homo sapiens, UACC-62, Melanoma, 10 µM one dose, 48 h, read-out: growth percentage.
A further experiment deals with SK-OV-3. The conditions noted are these: Homo sapiens, SK-OV-3, Ovarian Cancer, 10 µM one dose, 48 h, read-out: growth percentage.
Another experiment has as its system K-562. The following applies: Homo sapiens, K562, K-562, Leukemia, 10 µM one dose, 48 h, read-out: growth percentage.
Another experiment deals with EKVX. The conditions noted are these: Homo sapiens, Non-Small Cell Lung Cancer, 10 µM one dose, 48 h, read-out: growth percentage.
The subject of another experiment is BT-549. The conditions noted are these: Homo sapiens, BT-549, Breast Cancer, 10 µM one dose, 48 h, read-out: growth percentage.
Another experiment relates to A498. The following applies: Homo sapiens, A498, Renal Cancer, 10 µM one dose, 48 h, read-out: growth percentage.
In the next experiment the test system is HCC-2998. The following applies: Homo sapiens, HCC-2998, Colon Cancer, 10 µM one dose, 48 h, read-out: growth percentage.

Drawing on publication PMC8880564, “Design, Synthesis, and Biological Evaluation of a Novel VEGFR-2 Inhibitor Based on a 1,2,5-Oxadiazole-2-Oxide Scaffold with MAPK Signaling Pathway Inhibition” (Pharmaceuticals, 2022), this text covers activity for 6 compounds.

Regarding `Cc1nn(-c2ccccc2)c2ncnc(Nc3ccc(OCc4c(-c5ccccc5)no[n+]4[O-])cc3)c12` [6c, 3-((4-((3-methyl-1-phenyl-1H-pyrazolo[3,4-d]pyrimidin-4-yl)amino)phenoxy)methyl)-4-phenyl-1,2,5-oxadiazole 2-oxide], the activity at 10 µM in the experiment with OVCAR-3 was determined as 105%; with LOX IMVI it was 101%; in the experiment with COLO 205, 116%; in the experiment on MDA-MB-435, 93.4%; in the experiment on CCRF-CEM, 97.4%; in the experiment on SR, 73.9%. The activity at 10 µM in the experiment on NCI-H23 stood at 98.1%; with IGROV1 it was 97.1%; with OVCAR-4, 90.6%; in the experiment on ACHN it was 97.3%; in the experiment on KM12, 99.8%; with HCT-15, 91.5%. Moreover, the activity at 10 µM turned out to be 95.7% with MDA-MB-231/ATCC; 83.5% in the experiment with PC-3; 72% with T-47D; 81.4% in the experiment with UACC-62; 104% with SK-OV-3; 90.2% with K-562. Further, the activity at 10 µM amounted to 90.4% with EKVX, 101% with BT-549, 86.3% in the experiment with A498 and 106% in the experiment on HCC-2998.

Consider `Cc1nn(-c2ccc(Br)cc2)c2ncnc(Nc3ccc(OCc4c(-c5ccccc5)no[n+]4[O-])cc3)c12` [6g, 3-((4-((1-(4-bromophenyl)-3-methyl-1H-pyrazolo[3,4-d]pyrimidin-4-yl)amino)phenoxy)methyl)-4-phenyl-1,2,5-oxadiazole 2-oxide], for which the activity at 10 µM was found to be 112% in the experiment with OVCAR-3; 95% in the experiment on LOX IMVI; 117% with COLO 205; 101% in the experiment on MDA-MB-435; 98.1% in the experiment with CCRF-CEM; 121% with SR. Moreover, the activity at 10 µM was 95% in the experiment with NCI-H23; 88.2% in the experiment on IGROV1; 95.7% with OVCAR-4; 88% in the experiment with ACHN; 98.6% with KM12; 97.2% in the experiment with HCT-15. The activity at 10 µM in the experiment with MDA-MB-231/ATCC was 84.9%; in the experiment with PC-3 it was 90.9%; in the experiment with T-47D, 98.5%; with UACC-62, 80.3%; with SK-OV-3, 96.2%; in the experiment with K-562, 103%. The activity at 10 µM in the experiment with EKVX was 83.5%; in the experiment on BT-549, 104%; with A498, 106%; with HCC-2998, 104%.

As for `Cc1nn(-c2ccc(Br)cc2)c2nc(CNc3ccc(NCc4c(-c5ccccc5)no[n+]4[O-])cc3)[nH]c(=O)c12` [14c, 3-(((4-(((1-(4-bromophenyl)-3-methyl-4-oxo-4,5-dihydro-1H-pyrazolo[3,4-d]pyrimidin-6-yl)methyl)amino)phenyl)amino)methyl)-4-phenyl-1,2,5-oxadiazole 2-oxide], the activity at 10 µM was 93.9% in the experiment on OVCAR-3; 102% in the experiment with LOX IMVI; 115% with COLO 205; 101% in the experiment on MDA-MB-435; 105% in the experiment with CCRF-CEM; 95.2% in the experiment on SR. Moreover, the activity at 10 µM was found to be 103% in the experiment with NCI-H23; 85.6% with IGROV1; 127% in the experiment with OVCAR-4; 96.9% with ACHN; 106% in the experiment with KM12; 97.3% with HCT-15. Also, the activity at 10 µM with MDA-MB-231/ATCC turned out to be 96.5%; in the experiment with PC-3 it was 96.6%; in the experiment on T-47D, 103%; in the experiment on UACC-62, 105%; in the experiment with SK-OV-3, 107%; in the experiment with K-562, 111%. For the same compound, the activity at 10 µM came out at 98.9% with EKVX, 98.1% in the experiment with BT-549, 104% in the experiment on A498 and 112% in the experiment with HCC-2998.

With `Cc1nc(Nc2ccc(OCc3c(-c4ccccc4)no[n+]3[O-])cc2)c2cnn(-c3ccccc3)c2n1` [6b, 3-((4-((6-methyl-1-phenyl-1H-pyrazolo[3,4-d]pyrimidin-4-yl)amino)phenoxy)methyl)-4-phenyl-1,2,5-oxadiazole 2-oxide], the activity at 10 µM with OVCAR-3 was found to be 109%; in the experiment with LOX IMVI, 97.6%; in the experiment with COLO 205, 114%; in the experiment on MDA-MB-435, 99.7%; in the experiment on CCRF-CEM, 102%; with SR it was 89.1%. Further, the activity at 10 µM in the experiment on NCI-H23 was 102%; in the experiment with IGROV1, 101%; in the experiment with OVCAR-4, 102%; in the experiment with ACHN, 105%; in the experiment with KM12, 102%; in the experiment with HCT-15, 96.4%. The activity at 10 µM turned out to be 106% in the experiment on MDA-MB-231/ATCC; 103% in the experiment with PC-3; 106% with T-47D; 88.4% in the experiment with UACC-62; 110% with SK-OV-3; 111% in the experiment with K-562. The activity at 10 µM came to 93.1% in the experiment on EKVX, 95% in the experiment on BT-549, 102% with A498 and 108% in the experiment with HCC-2998.

Consider `O=c1[nH]c(CCl)nc2c1cnn2-c1ccccc1` [13a], for which the activity at 10 µM was 95.9% in the experiment with OVCAR-3; 103% with LOX IMVI; 114% with COLO 205; 95.7% in the experiment with MDA-MB-435; 101% with CCRF-CEM; 87.1% in the experiment on SR. The activity at 10 µM with NCI-H23 came to 101%; with IGROV1, 96.2%; in the experiment on OVCAR-4, 100%; in the experiment on ACHN it was 96.7%; with KM12, 101%; in the experiment on HCT-15 it was 99.9%. Besides, the activity at 10 µM in the experiment on MDA-MB-231/ATCC is 101%; in the experiment with PC-3 it was 105%; in the experiment with T-47D it was 95.2%; in the experiment on UACC-62 it was 96.2%; in the experiment on SK-OV-3, 106%; in the experiment with K-562, 87.5%. The activity at 10 µM in the experiment with EKVX was 100%; in the experiment with BT-549, 94.1%; in the experiment on A498, 77.9%; in the experiment with HCC-2998 it was 105%.

Regarding `[O-][n+]1onc(-c2ccccc2)c1CNc1ccc(Nc2nc(C(F)(F)F)nc3c2cnn3-c2ccc(Br)cc2)cc1` [12b, 3-(((4-((1-(4-bromophenyl)-6-(trifluoromethyl)-1H-pyrazolo[3,4-d]pyrimidin-4-yl)amino)phenyl)amino)methyl)-4-phenyl-1,2,5-oxadiazole 2-oxide], the activity at 10 µM stood at 92% in the experiment with OVCAR-3; 27.9% in the experiment with LOX IMVI; 74.6% in the experiment on COLO 205; 72.8% in the experiment on MDA-MB-435; 48.5% in the experiment on CCRF-CEM; 43.5% in the experiment with SR. Moreover, the activity at 10 µM turned out to be 72.4% with NCI-H23; 60.1% with IGROV1; 78.5% in the experiment with OVCAR-4; 56.9% in the experiment on ACHN; 41.2% in the experiment with KM12; 38.1% in the experiment with HCT-15. Further, the activity at 10 µM in the experiment on MDA-MB-231/ATCC came to 69.7%; in the experiment on PC-3, 48.2%; with T-47D, 68.8%; with UACC-62, 64.9%; in the experiment with SK-OV-3, 88.8%; in the experiment with K-562 it was 22.8%. Further, the activity at 10 µM with EKVX was determined as 65.4%; in the experiment with BT-549, 97.5%; in the experiment on A498 it was 97.4%; in the experiment on HCC-2998 it was 75.1%.
